Results published in ChEMBL document CHEMBL3352659, “Indolinone-based acetylcholinesterase inhibitors: synthesis, biological activity and molecular modeling” (Eur J Med Chem, 2014).

How the values were obtained:
Acetylcholinesterase [1] = target: T1, Acetylcholinesterase (Electrophorus electricus, UniProt O42275); assay: Inhibition of electric eel AChE using acetylthiocholine iodide substrate by Ellman method based spectrophotometry
Cholinesterase = Cholinesterase (Equus caballus, UniProt P81908); assay: Inhibition of equine serum BuChE using butyrylthiocholine iodide substrate by Ellman method based spectrophotometry
Chain of Cholinesterase (P81908 whole entry): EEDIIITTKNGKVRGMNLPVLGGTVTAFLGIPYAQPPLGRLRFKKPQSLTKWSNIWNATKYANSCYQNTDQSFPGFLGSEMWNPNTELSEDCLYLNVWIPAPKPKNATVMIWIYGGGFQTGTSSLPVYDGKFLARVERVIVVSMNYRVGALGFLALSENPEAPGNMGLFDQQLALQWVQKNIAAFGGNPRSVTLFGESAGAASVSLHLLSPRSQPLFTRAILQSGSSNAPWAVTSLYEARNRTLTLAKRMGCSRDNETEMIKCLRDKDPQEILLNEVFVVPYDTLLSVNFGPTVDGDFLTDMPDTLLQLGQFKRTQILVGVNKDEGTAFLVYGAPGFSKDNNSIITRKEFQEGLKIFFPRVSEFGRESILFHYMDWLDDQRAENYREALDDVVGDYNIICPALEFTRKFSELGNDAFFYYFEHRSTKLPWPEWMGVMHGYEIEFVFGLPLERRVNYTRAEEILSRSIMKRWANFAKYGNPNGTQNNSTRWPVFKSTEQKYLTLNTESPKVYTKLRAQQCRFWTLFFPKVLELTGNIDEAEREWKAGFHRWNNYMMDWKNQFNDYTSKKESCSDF

[2] = Selectivity index, ratio of IC50 for equine serum BuChE to IC50 for electric eel AChE
Acetylcholinesterase [3] = target: T1, Acetylcholinesterase; assay: Mixed type inhibition of electric eel AChE using acetylthiocholine iodide substrate by Lineweaver-Burk plot analysis

T1 sequence (O42275 whole entry): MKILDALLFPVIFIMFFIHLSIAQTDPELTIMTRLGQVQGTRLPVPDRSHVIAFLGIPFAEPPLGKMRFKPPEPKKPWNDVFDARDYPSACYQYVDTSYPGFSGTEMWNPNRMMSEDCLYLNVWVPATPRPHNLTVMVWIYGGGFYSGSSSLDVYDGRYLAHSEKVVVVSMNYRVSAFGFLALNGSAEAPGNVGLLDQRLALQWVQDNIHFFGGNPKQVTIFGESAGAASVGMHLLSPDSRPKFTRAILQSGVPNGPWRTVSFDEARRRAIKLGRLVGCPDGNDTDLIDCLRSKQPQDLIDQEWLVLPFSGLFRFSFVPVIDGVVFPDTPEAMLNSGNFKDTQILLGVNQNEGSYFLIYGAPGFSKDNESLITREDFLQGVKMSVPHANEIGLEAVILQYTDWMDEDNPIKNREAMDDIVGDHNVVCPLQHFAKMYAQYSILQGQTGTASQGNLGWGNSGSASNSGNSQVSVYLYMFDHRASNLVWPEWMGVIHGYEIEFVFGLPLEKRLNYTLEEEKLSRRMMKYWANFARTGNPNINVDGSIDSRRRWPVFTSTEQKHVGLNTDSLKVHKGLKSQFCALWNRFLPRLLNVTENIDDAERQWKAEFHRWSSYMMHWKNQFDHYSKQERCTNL

| SMILES | IC50 (Acetylcholinesterase [1]) | IC50 (Cholinesterase) | Ratio IC50 [2] | Ki (Acetylcholinesterase [3]) |
| --- | --- | --- | --- | --- |
| O=C1Nc2ccccc2/C1=C\c1cc[n+](Cc2ccccc2[N+](=O)[O-])cc1 | 214 nM | 1600 nM | 7.5 | – |
| O=C1Nc2ccccc2/C1=C\c1cc[n+](Cc2cccc(Cl)c2)cc1 | 4.9 nM | 1350 nM | 276 | – |
| O=C1Nc2ccccc2/C1=C\c1cc[n+](Cc2ccccc2F)cc1 | 1.25 nM | 4270 nM | 3420 | – |
| COc1ccc(C[n+]2ccc(/C=C3/C(=O)Nc4ccccc43)cc2)cc1 | 677 nM | 7900 nM | 11.7 | – |
| O=C1Nc2ccccc2/C1=C\c1cc[n+](Cc2c(F)cccc2Cl)cc1 | 4.1 nM | 2000 nM | 488 | – |
| O=C1Nc2ccccc2/C1=C\c1cc[n+](Cc2ccccc2Cl)cc1 | 0.44 nM | 1370 nM | 3110 | 1.14 nM |
| O=C1Nc2ccccc2/C1=C\c1cc[n+](Cc2ccc(CCl)cc2)cc1 | 103 nM | 1000 nM | 9.67 | – |
| O=C1Nc2ccccc2/C1=C\c1cc[n+](Cc2ccc(Cl)cc2Cl)cc1 | 258 nM | 2500 nM | 9.7 | – |
| O=C1Nc2ccccc2/C1=C\c1cc[n+](Cc2ccc(F)cc2)cc1 | 677 nM | 3100 nM | 4.58 | – |
| Cc1ccccc1C[n+]1ccc(/C=C2/C(=O)Nc3ccccc32)cc1 | 15.3 nM | 887 nM | 57.9 | – |
| O=C1Nc2ccccc2/C1=C\c1cc[n+](Cc2ccc(Cl)c(Cl)c2)cc1 | 29.4 nM | 3300 nM | 112 | – |
| O=C1Nc2ccccc2/C1=C\c1cc[n+](Cc2cccc(F)c2)cc1 | 12.8 nM | 4500 nM | 352 | – |
| O=C1Nc2ccccc2/C1=C\c1cc[n+](Cc2c(Cl)cccc2Cl)cc1 | 17 nM | 1500 nM | 88.2 | – |
| O=C1Nc2ccccc2/C1=C\c1cc[n+](Cc2ccc(Br)cc2)cc1 | 653 nM | 1900 nM | 2.9 | – |
| O=C1Nc2ccccc2/C1=C\c1cc[n+](Cc2ccc([N+](=O)[O-])cc2)cc1 | 744 nM | 7500 nM | 10 | – |
| O=C1Nc2ccccc2/C1=C\c1cc[n+](Cc2ccccc2)cc1 | 47.1 nM | 4300 nM | 91.3 | – |
| COc1cccc(C[n+]2ccc(/C=C3/C(=O)Nc4ccccc43)cc2)c1 | 6.6 nM | 2800 nM | 424 | – |
| O=C1Nc2ccccc2/C1=C\c1cc[n+](Cc2ccc(Cl)cc2)cc1 | 590 nM | 2200 nM | 3.73 | – |
| O=C1Nc2ccccc2/C1=C\c1cc[n+](Cc2cccc(Br)c2)cc1 | 10.3 nM | 1740 nM | 169 | – |
| O=C1Nc2ccccc2/C1=C\c1cc[n+](Cc2ccccc2Br)cc1 | 1.46 nM | 1230 nM | 842 | – |
| Cc1cccc(C[n+]2ccc(/C=C3/C(=O)Nc4ccccc43)cc2)c1 | 5.2 nM | 1700 nM | 327 | – |
